These results are taken from patent US10570184B2, “GLP-1/glucagon receptor co-agonists for medical use” (Novo Nordisk A/S, priority 2014, dated 2020).

Starred links: 1 amine or outer side, 2 acyl side, 3 side chain; linkers in the order of their positions; H or OH if unused. Non-standard residues stand in square brackets, D forms with d. Residues, ends and D or L forms follow the SMILES beside them. Groups on a side chain read outwards from the residue. *: point of attachment. C18 diacid = O=C(O)CCCCCCCCCCCCCCCCC(=O)*; γGlu = O=C(O)[C@H](CCC(=O)[*:2])N[*:1]; AEEA = NCCOCCOCC(=O)O; Aib = CC(C)(N)C(=O)O

One data set deals with T1, human GLP-1 receptor (Homo sapiens, UniProt P43220).
T1 construct: expressed in transfected cells; host or cells: membranes of BHK cells (parent BHKTS13), clone FCW467-12A
T1 sequence (P43220 24-463): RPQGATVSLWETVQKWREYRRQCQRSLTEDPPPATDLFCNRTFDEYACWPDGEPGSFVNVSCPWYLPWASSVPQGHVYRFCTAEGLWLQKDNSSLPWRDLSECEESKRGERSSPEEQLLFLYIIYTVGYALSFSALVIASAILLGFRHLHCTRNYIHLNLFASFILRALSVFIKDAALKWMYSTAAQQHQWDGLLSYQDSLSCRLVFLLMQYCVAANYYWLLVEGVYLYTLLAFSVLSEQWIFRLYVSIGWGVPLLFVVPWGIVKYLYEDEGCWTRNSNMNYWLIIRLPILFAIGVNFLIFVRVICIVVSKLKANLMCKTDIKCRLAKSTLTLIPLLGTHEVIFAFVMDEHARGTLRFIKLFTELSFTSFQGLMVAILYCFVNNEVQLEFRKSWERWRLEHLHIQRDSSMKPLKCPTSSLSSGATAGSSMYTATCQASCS
In words: Assay (I)(a) GLP-1 receptor activation, CRE luciferase reporter gene assay in BHK cells. Type of data set: cell-based. The conditions noted are these: without presence of serum albumin; read-out: GLP-1R EC50 (pM) [Assay (I)(a)]. The essentials: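 Stable BHK clone expressing human GLP-1 receptor with CRE-driven firefly luciferase, 5×10EE3 cells/well in medium with 2% ovalbumin and 0.2% Pluronic F-68. Compounds at 1×10EE-13 to 1×10EE-6 M final, 3 h at 37° C.; luminescence read, EC50 (pM) from four-parameter fit.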
(In general: In a reporter assay the amount or activity of a reporter protein is the signal.)

The nature of data set [1]: Assay (III) ThT fibrillation assay for physical stability. The data set is classed as physicochemical. The settings on record: 250 μM in 10 mM HEPES buffer, 37° C., shaking 960 rpm. The essentials: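 Glucagon derivative at 250 μM in 10 mM HEPES pH 7.5 with 1 μM ThT was incubated at 37 °C under 960 rpm orbital shaking. Fluorescence (ex 444/em 485 nm) was read every 20 min and fitted for lag time (t0−2τ) and kapp (1/τ). Recovery was soluble peptide after centrifugation/filtration, by RP-HPLC, as percent of initial.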

One may read the EC50 as the concentration at which the effect is half-maximal. Take `CC[C@H](C)[C@H](NC(=O)[C@H](CC(C)C)NC(=O)[C@H](Cc1c[nH]c2ccccc12)NC(=O)[C@H](CCC(N)=O)NC(=O)[C@@H](NC(=O)[C@H](Cc1ccccc1)NC(=O)[C@H](CC(=O)O)NC(=O)[C@H](CCCNC(=N)N)NC(=O)[C@H](C)NC(=O)[C@H](CCCNC(=N)N)NC(=O)[C@H](CCCNC(=N)N)NC(=O)[C@H](C)NC(=O)[C@H](CC(=O)O)NC(=O)[C@H](CC(C)C)NC(=O)[C@H](Cc1ccc(O)cc1)NC(=O)[C@H](CCCCN)NC(=O)[C@H](CO)NC(=O)[C@H](CC(C)C)NC(=O)[C@H](CC(=O)O)NC(=O)[C@H](CO)NC(=O)[C@@H](NC(=O)[C@H](Cc1ccccc1)NC(=O)[C@@H](NC(=O)CNC(=O)[C@H](CCC(N)=O)NC(=O)C(C)(C)NC(=O)[C@@H](N)Cc1c[nH]cn1)[C@@H](C)O)[C@@H](C)O)C(C)C)C(=O)N[C@@H](CC(N)=O)C(=O)N[C@@H](CCCCNC(=O)CC[C@H](NC(=O)CC[C@H](NC(=O)COCCOCCNC(=O)COCCOCCNC(=O)CC[C@H](NC(=O)CCCCCCCCCCCCCCCCC(=O)O)C(=O)O)C(=O)O)C(=O)O)C(N)=O` [Chem. 20, N^ε29-[(4S)-4-carboxy-4-[[(4S)-4-carboxy-4-[[2-[2-[2-[[2-[2-[2-[[(4S)-4-carboxy-4-(17-carboxyheptadecanoylamino)butanoyl]amino]ethoxy]ethoxy]acetyl]amino]ethoxy]ethoxy]acetyl]amino]butanoyl]amino]butanoyl]-[Aib2,Leu10,Ala16,Arg20,Ile27,Lys29]-Glucagon amide] (H-H[Aib]QGTFTSDLSKYLDARRARDFVQWLINK([γGlu-γGlu-AEEA-AEEA-γGlu-C18 diacid])-NH2; N-terminus assumed): on human GLP-1 receptor, the EC50 was 4 pM. Further, the “ThT Assay Lag time (h) [Assay (III), pH 7.5]” value (from here on “ThT Assay Lag time (h)”) in data set [1] came to 45.0 h.

Regarding `CC[C@H](C)[C@H](NC(=O)[C@H](CC(C)C)NC(=O)[C@H](Cc1c[nH]c2ccccc12)NC(=O)[C@H](CCC(N)=O)NC(=O)[C@@H](NC(=O)[C@H](Cc1ccccc1)NC(=O)[C@H](CC(=O)O)NC(=O)[C@H](CCCNC(=N)N)NC(=O)[C@H](C)NC(=O)[C@H](CCCNC(=N)N)NC(=O)[C@H](CCCNC(=N)N)NC(=O)[C@H](C)NC(=O)[C@H](CC(=O)O)NC(=O)[C@H](CC(C)C)NC(=O)[C@H](Cc1ccc(O)cc1)NC(=O)[C@H](CCCCN)NC(=O)[C@H](CO)NC(=O)[C@H](CC(C)C)NC(=O)[C@H](CC(=O)O)NC(=O)[C@H](CO)NC(=O)[C@@H](NC(=O)[C@H](Cc1ccccc1)NC(=O)[C@@H](NC(=O)CNC(=O)[C@H](CCC(N)=O)NC(=O)C(C)(C)NC(=O)[C@@H](N)Cc1c[nH]cn1)[C@@H](C)O)[C@@H](C)O)C(C)C)C(=O)N[C@@H](CO)C(=O)N[C@@H](CCCCNC(=O)CC[C@H](NC(=O)CC[C@H](NC(=O)COCCOCCNC(=O)COCCOCCNC(=O)CC[C@H](NC(=O)CCCCCCCCCCCCCCCCC(=O)O)C(=O)O)C(=O)O)C(=O)O)C(N)=O` [Chem. 27, N^ε29-[(4S)-4-carboxy-4-[[(4S)-4-carboxy-4-[[2-[2-[2-[[2-[2-[2-[[(4S)-4-carboxy-4-(17-carboxyheptadecanoylamino)butanoyl]amino]ethoxy]ethoxy]acetyl]amino]ethoxy]ethoxy]acetyl]amino]butanoyl]amino]butanoyl]-[Aib2,Leu10,Ala16,Arg20,Ile27,Ser28,Lys29]-Glucagon amide] (H-H[Aib]QGTFTSDLSKYLDARRARDFVQWLISK([γGlu-γGlu-AEEA-AEEA-γGlu-C18 diacid])-NH2; N-terminus assumed), the EC50 on human GLP-1 receptor stood at 3 pM. Further, the “ThT Assay Lag time (h)” value in data set [1] amounted to 45.0 h.

Turning to `CC[C@H](C)[C@H](NC(=O)[C@H](CC(C)C)NC(=O)[C@H](Cc1c[nH]c2ccccc12)NC(=O)[C@H](CCC(N)=O)NC(=O)[C@@H](NC(=O)[C@H](Cc1ccccc1)NC(=O)[C@H](CC(=O)O)NC(=O)[C@H](CCCNC(=N)N)NC(=O)[C@H](C)NC(=O)[C@H](CCCNC(=N)N)NC(=O)[C@H](CCCNC(=N)N)NC(=O)[C@H](CO)NC(=O)[C@H](CCC(=O)O)NC(=O)[C@H](CC(C)C)NC(=O)[C@H](Cc1ccc(O)cc1)NC(=O)[C@H](CCCNC(=N)N)NC(=O)[C@H](CO)NC(=O)[C@H](Cc1ccc(O)cc1)NC(=O)[C@H](CC(=O)O)NC(=O)[C@H](CO)NC(=O)[C@@H](NC(=O)[C@H](Cc1ccccc1)NC(=O)[C@@H](NC(=O)CNC(=O)[C@H](CCC(N)=O)NC(=O)C(C)(C)NC(=O)[C@@H](N)Cc1c[nH]cn1)[C@@H](C)O)[C@@H](C)O)C(C)C)C(=O)N[C@@H](CCCCNC(=O)CC[C@H](NC(=O)COCCOCCNC(=O)CC[C@H](NC(=O)COCCOCCNC(=O)CC[C@H](NC(=O)COCCOCCNC(=O)CC[C@H](NC(=O)CC[C@H](NC(=O)CCCCCCCCCCCCCCCCC(=O)O)C(=O)O)C(=O)O)C(=O)O)C(=O)O)C(=O)O)C(=O)N[C@H](C(N)=O)[C@@H](C)O` [Chem. 37, N^28-[(4S)-4-carboxy-4-[[2-[2-[2-[[(4S)-4-carboxy-4-[[2-[2-[2-[[(4S)-4-carboxy-4-[[2-[2-[2-[[(4S)-4-carboxy-4-[[(4S)-4-carboxy-4-(17-carboxyheptadecanoylamino)butanoyl]amino]butanoyl]amino]ethoxy]ethoxy]acetyl]amino]butanoyl]amino]ethoxy]ethoxy]acetyl]amino]butanoyl]amino]ethoxy]ethoxy]acetyl]amino]butanoyl]-[Aib2,Arg12,Glu15,Arg20,Ile27,Lys28]-Glucagon amide] (H-H[Aib]QGTFTSDYSRYLESRRARDFVQWLIK([γGlu-AEEA-γGlu-AEEA-γGlu-AEEA-γGlu-γGlu-C18 diacid])T-NH2; N-terminus assumed), the EC50 on human GLP-1 receptor amounted to 4 pM. Further, the “ThT Assay Lag time (h)” value in data set [1] was determined as 6.3 h.

On to `CC[C@H](C)[C@H](NC(=O)[C@H](CC(C)C)NC(=O)[C@H](Cc1c[nH]c2ccccc12)NC(=O)[C@H](C)NC(=O)[C@@H](NC(=O)[C@H](Cc1ccccc1)NC(=O)[C@H](CC(=O)O)NC(=O)[C@H](CCC(N)=O)NC(=O)[C@H](C)NC(=O)[C@H](CCCNC(=N)N)NC(=O)[C@H](CCCNC(=N)N)NC(=O)[C@H](CO)NC(=O)[C@H](CCC(=O)O)NC(=O)[C@H](CC(C)C)NC(=O)[C@H](Cc1ccc(O)cc1)NC(=O)[C@H](CCCCN)NC(=O)[C@H](CO)NC(=O)[C@H](Cc1ccc(O)cc1)NC(=O)[C@H](CC(=O)O)NC(=O)[C@H](CO)NC(=O)[C@@H](NC(=O)[C@H](Cc1ccccc1)NC(=O)[C@@H](NC(=O)CNC(=O)[C@H](CCC(N)=O)NC(=O)C(C)(C)NC(=O)[C@@H](N)Cc1c[nH]cn1)[C@@H](C)O)[C@@H](C)O)C(C)C)C(=O)N[C@@H](CCCCNC(=O)CC[C@H](NC(=O)CC[C@H](NC(=O)COCCOCCNC(=O)COCCOCCNC(=O)CC[C@H](NC(=O)CCCCCCCCCCCCCCCCC(=O)O)C(=O)O)C(=O)O)C(=O)O)C(=O)N[C@H](C(N)=O)[C@@H](C)O` [Chem. 34, N^ε28-[(4S)-4-carboxy-4-[[(4S)-4-carboxy-4-[[2-[2-[2-[[2-[2-[2-[[(4S)-4-carboxy-4-(17-carboxyheptadecanoylamino)butanoyl]amino]ethoxy]ethoxy]acetyl]amino]ethoxy]ethoxy]acetyl]amino]butanoyl]amino]butanoyl]-[Aib2,Glu15,Ala24,Ile27,Lys28]-Glucagon amide] (H-H[Aib]QGTFTSDYSKYLESRRAQDFVAWLIK([γGlu-γGlu-AEEA-AEEA-γGlu-C18 diacid])T-NH2), for which the concentration for a half-maximal effect (EC50) at human GLP-1 receptor turned out to be 3 pM. Also, in data set [1], the “ThT Assay Lag time (h)” value is on record as 45.0 h.

For the molecule `CC[C@H](C)[C@H](NC(=O)[C@H](CC(C)C)NC(=O)[C@H](Cc1c[nH]c2ccccc12)NC(=O)[C@H](CCC(N)=O)NC(=O)[C@@H](NC(=O)[C@H](Cc1ccccc1)NC(=O)[C@H](CCC(=O)O)NC(=O)[C@H](CCCNC(=N)N)NC(=O)[C@H](C)NC(=O)[C@H](CCCNC(=N)N)NC(=O)[C@H](CCCNC(=N)N)NC(=O)[C@H](CO)NC(=O)[C@H](CCC(=O)O)NC(=O)[C@H](CC(C)C)NC(=O)[C@H](Cc1ccc(O)cc1)NC(=O)[C@H](CCCCN)NC(=O)[C@H](CO)NC(=O)[C@H](CC(C)C)NC(=O)[C@H](CC(=O)O)NC(=O)[C@H](CO)NC(=O)[C@@H](NC(=O)[C@H](Cc1ccccc1)NC(=O)[C@@H](NC(=O)CNC(=O)[C@H](CCC(N)=O)NC(=O)C(C)(C)NC(=O)[C@@H](N)Cc1c[nH]cn1)[C@@H](C)O)[C@@H](C)O)C(C)C)C(=O)N[C@@H](CCCCNC(=O)CC[C@H](NC(=O)CC[C@H](NC(=O)COCCOCCNC(=O)COCCOCCNC(=O)CC[C@H](NC(=O)CC[C@H](NC(=O)CCCCCCCCCCCCCCCCC(=O)O)C(=O)O)C(=O)O)C(=O)O)C(=O)O)C(=O)N[C@H](C(N)=O)[C@@H](C)O` [Chem. 25, N^ε28-[(4S)-4-carboxy-4-[[(4S)-4-carboxy-4-[[2-[2-[2-[[2-[2-[2-[[(4S)-4-carboxy-4-[[(4S)-4-carboxy-4-(17-carboxyheptadecanoylamino)butanoyl]amino]butanoyl]amino]ethoxy]ethoxy]acetyl]amino]ethoxy]ethoxy]acetyl]amino]butanoyl]amino]butanoyl]-[Aib2,Leu10,Glu15,Arg20,Glu21,Ile27,Lys28]-Glucagon amide] (H-H[Aib]QGTFTSDLSKYLESRRAREFVQWLIK([γGlu-γGlu-AEEA-AEEA-γGlu-γGlu-C18 diacid])T-NH2; N-terminus assumed), the EC50 at human GLP-1 receptor came out at 2 pM. Further, in data set [1], the “ThT Assay Lag time (h)” value amounted to 23.0 h.
